Experimental data: patent publication US20230146455A1, “TREATMENT OF INFLAMMATORY DISEASES WITH PEPTIDES AND PHARMACEUTICAL COMPOSITIONS” (Yuyu Pharma, Inc., priority 2020, published 2023)
Where “and” joins values, the source holds several entries; their conditions need not be identical. Identical values can stand only once. Where a SMILES comes first, the peptide text is derived from it. [ ]: non-standard residue; d: D form. Hyp = O=C(O)[C@@H]1C[C@@H](O)CN1

How the values were obtained:
Assay type in all cases: cell-based, human
MMP-9 = experiment: Example 8 main study Luminex, LPS hPBMCs: MMP-9; conditions: PBMC without LPS, test article 500 nM; single replicates (1st, 2nd)
Procedure: (§1) Human PBMCs were pretreated with YY-101, YDE-011, YDE-043 or reference compound; Xiidra® at various concentration (ranging from […] to 500 nM) for 2 h before stimulation. An equal volume of 0.5% DMSO was used as a vehicle control. Then, the cells were treated with LPS at 5 ug/ml, which was selected based on the pilot study. The supernatants from treated cells were harvested at 24 h and placed in a 96 well for Luminex cytokine & chemokine profiling using a Luminex 200 multiplex assay (Luminex; R&D system, USA).
(§2) The main study arm with triplicate wells per group in a 24-well plate: • 1. Blank • 2. PBMC: 0.5% DMSO • 3. PBMC+LPS (5 ug/ml) • 4. PBMC+YY-101 500 nM • 5. PBMC+YY-101 50 nM • 6. PBMC+YY-101 5 nM • 7. PBMC+YY-101 0.5 nM • 8. PBMC+LPS (5 ug/ml)+Xiidra® 500 nM • 9. PBMC+LPS (5 ug/ml)+Xiidra® 50 nM • 10. PBMC+LPS (5 ug/ml)+Xiidra® 5 nM • 11. PBMC+LPS (5 ug/ml)+Xiidra® 0.5 nM • 12. PBMC+LPS (5 ug/ml)+Xiidra® 0.05 nM • 13. PBMC+LPS (5 ug/ml)+Xiidra® 0.005 nM • 14. PBMC+LPS (5 ug/ml)+YY-101 500 nM • 15. PBMC+LPS (5 ug/ml)+YY-101 50 nM • 16. PBMC+LPS (5 ug/ml)+YY-101 5 nM • 17. PBMC+LPS (5 ug/ml)+YY-101 0.5 nM • 18. PBMC+LPS (5 ug/ml)+YY-101 0.05 nM • 19. PBMC+LPS (5 ug/ml)+YY-101 0.005 nM • 20. PBMC+LPS (5 ug/ml)+YDE-011 500 nM • 21. PBMC+LPS (5 ug/ml)+YDE-011 50 nM • 22. PBMC+LPS (5 ug/ml)+YDE-011 5 nM • 23. PBMC+LPS (5 ug/ml)+YDE-011 0.5 nM • 24. PBMC+LPS (5 ug/ml)+YDE-011 0.05 nM • 25. PBMC+LPS (5 ug/ml)+YDE-011 0.005 nM • 26. PBMC+LPS (5 ug/ml)+YDE-043 500 nM • 27. PBMC+LPS (5 ug/ml)+YDE-043 50 nM • 28. PBMC+LPS (5 ug/ml)+YDE-043 5 nM • 29. PBMC+LPS (5 ug/ml)+YDE-043 0.5 nM • 30. PBMC+LPS (5 ug/ml)+YDE-043 0.05 nM • 31. PBMC+LPS (5 ug/ml)+YDE-043 0.005 nM
(§3) Multiplex assay was used to measure 30 cytokines and chemokines. The 1:200 diluted cell supernatant and serial dilution of the standard were dispensed into a 96 well plate at 50 ul/well. Then, the pre-mixed cocktail of antibody-coated magnetic beads was dispensed at 50 ul/well and incubated at room temperature for 2 h in a horizontal orbital microplate shaker at 800±500 rpm. The beads were washed using a magnetic device to prevent loss. The biotin-antibody was dispensed in 50 ul of each well and incubated at room temperature for 1 h in a shaker at 800±500 rpm. After washing, streptavidin-PE was added at 50 ul/well and incubated at room temperature for 30 min in a shaker under the same conditions. Finally, after washing, wash buffer (100 ul/well) was added to the plate and incubated in a shaker for 2 min. The Luminex™ 200 setting were set according to the manufacturer's protocol. The data was calculated with a standard five-parameter logistic nonlinear regression analysis of the data (xPonent software 4.2, USA). Results were presented as concentration (ng/ml or pg/ml).

MMP-3 = experiment: Example 8 main study Luminex, LPS hPBMCs: MMP-3; conditions: for MMP-3 Concentration: single replicates
Procedure: as §1, §2, §3

TNF-alpha = experiment: Example 8 main study Luminex, LPS hPBMCs: TNF-alpha; conditions: for TNF-alpha Concentration: individual replicates; for TNF-alpha Concentration (pg/ml), Mean: mean of replicates
Procedure: as §1, §2, §3

[1] = PBMC + LPS(5 ug/ml) + YY101 0.005 nM
[2] = PBMC + LPS(5 ug/ml) + YY101 0.05 nM
[3] = PBMC + LPS(5 ug/ml) + YY101 0.5 nM
[4] = PBMC + LPS(5 ug/ml) + YY101 5 nM
[5] = PBMC + LPS(5 ug/ml) + YY101 50 nM
[6] = PBMC + LPS(5 ug/ml) + YY101 500 nM
[7] = at as low as 5 μM, LPS 5 ug/mL 24 hrs
[8] = PBMC + LPS(5 ug/ml) + test article 0.005 nM
[9] = PBMC + LPS(5 ug/ml) + test article 0.05 nM
[10] = PBMC + LPS(5 ug/ml) + test article 0.5 nM
[11] = PBMC + LPS(5 ug/ml) + test article 5 nM
[12] = PBMC + LPS(5 ug/ml) + test article 50 nM
[13] = PBMC + LPS(5 ug/ml) + test article 500 nM

## CC(C)C[C@H](NC(=O)CNC(=O)[C@H](CC(=O)O)NC(=O)[C@H](CCC(N)=O)NC(=O)CNC(=O)[C@@H]1C[C@@H](O)CN1)C(=O)N[C@@H](C)C(=O)NCC(=O)N1CCC[C@H]1C(=O)N[C@@H](CCCCN)C(=O)O [YY-101] (H-[Hyp]GQDGLAGPK-OH; N-terminus and C-terminus assumed)
MMP-9
  Concentration (pg/ml), MMP-9: 10126.8 pg/mL and 12153.3 pg/mL
  MFI (Bead name: MMP-9): 48.0 and 54.0
MMP-3; [1]
  MMP-3 Concentration, Mean: 7549.8 pg/mL
  MMP-3 Concentration: 7549.7 pg/mL and 7474.3 pg/mL and 7625.3 pg/mL
MMP-3; [2]
  MMP-3 Concentration, Mean: 8082.3 pg/mL
  MMP-3 Concentration: 7776.9 pg/mL and 8541.1 pg/mL and 7928.9 pg/mL
MMP-3; [3]
  MMP-3 Concentration, Mean: 7751.6 pg/mL
  MMP-3 Concentration: 7701.1 pg/ml and 7776.9 pg/ml (2×)
MMP-3; [4]
  MMP-3 Concentration, Mean: 7905.9 pg/mL
  MMP-3 Concentration: 7549.7 pg/ml (2×) and 8618.2 pg/ml
MMP-3; [5]
  MMP-3 Concentration, Mean: 7777.4 pg/mL
  MMP-3 Concentration: 7549.7 pg/mL and 7701.1 pg/mL and 8081.3 pg/mL
MMP-3; [6]
  MMP-3 Concentration, Mean: 7752.0 pg/mL
  MMP-3 Concentration: 8043.1 pg/mL and 7663.2 pg/mL and 7549.7 pg/mL
MMP-3; PBMC + YY101 0.5 nM, no LPS
  MMP-3 Concentration, Mean: 6246.3 pg/mL
  MMP-3 Concentration: 6062.8 pg/mL and 6429.9 pg/mL
MMP-3; PBMC + YY101 5 nM, no LPS
  MMP-3 Concentration, Mean: 6246.0 pg/mL
  MMP-3 Concentration: 6172.6 pg/mL and 6319.4 pg/mL
MMP-3; PBMC + YY101 0.05 uM, no LPS
  MMP-3 Concentration, Mean: 6374.8 pg/mL
  MMP-3 Concentration: 6503.7 pg/mL and 6245.9 pg/mL
MMP-3; PBMC + YY101 50 nM, no LPS
  MMP-3 Concentration, Mean: 6118.0 pg/mL
  MMP-3 Concentration: 6282.7 pg/mL and 5953.3 pg/mL
MMP-3; PBMC + YY101 500 nM, no LPS
  MMP-3 Concentration, Mean: 6356.3 pg/mL
  MMP-3 Concentration: 6282.7 pg/mL and 6429.9 pg/mL
MMP-3; [7]
  LPS-induced MMP3 (in words): significantly reduced
TNF-alpha; [8]
  TNF-alpha Concentration: 2871.6 pg/mL and 2369.4 pg/mL and 2179.5 pg/mL
  TNF-alpha Concentration (pg/ml), Mean: 2473.5 pg/mL
TNF-alpha; [9]
  TNF-alpha Concentration: 1797.0 pg/mL and 2621.2 pg/mL and 2242.9 pg/mL
  TNF-alpha Concentration (pg/ml), Mean: 2220.4 pg/mL
TNF-alpha; [10]
  TNF-alpha Concentration: 2432.5 pg/mL and 2242.9 pg/mL and 2116.1 pg/mL
  TNF-alpha Concentration (pg/ml), Mean: 2263.8 pg/mL
TNF-alpha; [11]
  TNF-alpha Concentration: 1988.8 pg/mL and 1925.0 pg/mL and 2242.9 pg/mL
  TNF-alpha Concentration (pg/ml), Mean: 2052.2 pg/mL
TNF-alpha; [12]
  TNF-alpha Concentration: 1732.8 pg/mL and 1668.5 pg/mL and 1988.8 pg/mL
  TNF-alpha Concentration (pg/ml), Mean: 1796.7 pg/mL
TNF-alpha; [13]
  TNF-alpha Concentration: 2179.5 pg/mL and 1988.8 pg/mL and 1797.0 pg/mL
  TNF-alpha Concentration (pg/ml), Mean: 1988.4 pg/mL
TNF-alpha; PBMC + test article 0.5 nM, no LPS, dilution 200
  TNF-alpha Concentration: <7.70 pg/mL
TNF-alpha; PBMC + test article 5 nM, no LPS, dilution 200
  TNF-alpha Concentration: <7.70 pg/mL
TNF-alpha; PBMC + test article 0.05 uM, no LPS, dilution 200
  TNF-alpha Concentration: <7.70 pg/mL
TNF-alpha; PBMC + test article 50 nM, no LPS, dilution 200
  TNF-alpha Concentration: <7.70 pg/mL
TNF-alpha; PBMC + test article 500 nM, no LPS, dilution 200
  TNF-alpha Concentration: <7.70 pg/mL
TNF-alpha; [7]
  LPS-induced TNF-α (in words): significantly reduced
